Results taken from ChEMBL document CHEMBL2046442, “Rationally designing safer anilines: the challenging case of 4-aminobiphenyls” (J Med Chem, 2012).

Legend:
Assay type in all cases: toxicity, organism-based
Settings in all cases: salmonella enterica subsp. enterica serovar typhimurium
Salmonella typhimurium [1] = assay: Induction of mutagenesis in Salmonella typhimurium TA98 up to 5000 ug/plate by Ames test
Salmonella typhimurium [2] = assay: Induction of mutagenesis in Salmonella typhimurium TA98 at 160 ug/plate by Ames test in presence of rat liver S9 fraction relative to control
Salmonella typhimurium [3] = assay: Induction of mutagenesis in Salmonella typhimurium TA100 up to 5000 ug/plate by Ames test
Salmonella typhimurium [4] = assay: Induction of mutagenesis in Salmonella typhimurium TA100 at 160 ug/plate by Ames test in presence of rat liver S9 fraction relative to control
Salmonella typhimurium [5] = assay: Induction of mutagenesis in Salmonella typhimurium TA98 at 50 ug/plate by Ames test in presence of rat liver S9 fraction relative to control
Salmonella typhimurium [6] = assay: Induction of mutagenesis in Salmonella typhimurium TA100 at 16 ug/plate by Ames test in presence of rat liver S9 fraction relative to control
Salmonella typhimurium [7] = assay: Induction of mutagenesis in Salmonella typhimurium TA98 up to 5000 ug/plate by Ames test in presence of rat liver S9 fraction
Salmonella typhimurium [8] = assay: Induction of mutagenesis in Salmonella typhimurium TA100 up to 5000 ug/plate by Ames test in presence of rat liver S9 fraction
Salmonella typhimurium [9] = assay: Induction of mutagenesis in Salmonella typhimurium TA100 at 50 ug/plate by Ames test in presence of rat liver S9 fraction relative to control
Salmonella typhimurium [10] = assay: Induction of mutagenesis in Salmonella typhimurium TA98 at 1600 ug/plate by Ames test in presence of rat liver S9 fraction relative to control
Salmonella typhimurium [11] = assay: Induction of mutagenesis in Salmonella typhimurium TA100 at 500 ug/plate by Ames test in presence of rat liver S9 fraction relative to control
Salmonella typhimurium [12] = assay: Induction of mutagenesis in Salmonella typhimurium TA98 at 500 ug/plate by Ames test in presence of rat liver S9 fraction relative to control

**Q.** For `Nc1ccc(-c2ccc(F)cc2)cc1`, which Activity (Salmonella typhimurium [1]) is on record?
**A.** Its Activity is “Non-toxic”.

**Q.** What about the “fold change (FC)” value (Salmonella typhimurium [2]) of the same compound?
**A.** The value was 43.

**Q.** And the Activity (Salmonella typhimurium [3])?
**A.** The Activity was “Non-toxic”.

**Q.** What about the “fold change (FC)” value (Salmonella typhimurium [4]) of the same compound?
**A.** The value was 21.

**Q.** Which results are given for `Nc1ccc(-c2ccccc2)cc1F`?
**A.** Activity (Salmonella typhimurium [1]): Non-toxic; fold change (FC) (Salmonella typhimurium [5]): 54; Activity (Salmonella typhimurium [3]): Non-toxic; fold change (FC) (Salmonella typhimurium [6]): 27

**Q.** With `Nc1ccc(-c2ccccc2)c(F)c1` as the compound, how does the Activity (Salmonella typhimurium [1]) read?
**A.** Its Activity is “Non-toxic”.

**Q.** What about the “fold change (FC)” value (Salmonella typhimurium [2]) of the same compound?
**A.** Its value is 2.

**Q.** And the Activity (Salmonella typhimurium [3])?
**A.** Its Activity is “Non-toxic”.

**Q.** And the “fold change (FC)” value (Salmonella typhimurium [4])?
**A.** The value was 3.

**Q.** What does the source list for `N#Cc1cc(Cl)ccc1-c1ccc(N)cc1F`?
**A.** Activity (Salmonella typhimurium [1]): Non-toxic; Activity (Salmonella typhimurium [7]): Non-toxic; Activity (Salmonella typhimurium [3]): Non-toxic; Activity (Salmonella typhimurium [8]): Non-toxic

**Q.** How did the Activity (Salmonella typhimurium [1]) turn out when `N#Cc1cc(N)ccc1-c1ccccc1Cl` was run?
**A.** Its Activity is “Non-toxic”.

**Q.** And the Activity (Salmonella typhimurium [7])?
**A.** The Activity was “Non-toxic”.

**Q.** What about the Activity (Salmonella typhimurium [3]) of the same compound?
**A.** Its Activity is “Non-toxic”.

**Q.** And the Activity (Salmonella typhimurium [8])?
**A.** Its Activity is “Non-toxic”.

**Q.** Which Activity (Salmonella typhimurium [1]) does the source give for `Nc1ccc(-c2ccc(F)cc2F)c(F)c1` here?
**A.** The Activity was “Non-toxic”.

**Q.** What about the Activity (Salmonella typhimurium [7]) of the same compound?
**A.** The Activity was “Non-toxic”.

**Q.** What about the Activity (Salmonella typhimurium [3]) of the same compound?
**A.** The Activity was “Non-toxic”.

**Q.** What about the Activity (Salmonella typhimurium [8]) of the same compound?
**A.** Its Activity is “Non-toxic”.

**Q.** Which results are given for `Nc1ccc(-c2cccc(Cl)c2)cc1`?
**A.** Activity (Salmonella typhimurium [1]): Non-toxic; fold change (FC) (Salmonella typhimurium [2]): 47; Activity (Salmonella typhimurium [3]): Non-toxic; fold change (FC) (Salmonella typhimurium [9]): 12

**Q.** What does the source list for `Nc1ccc(-c2ccccc2F)cc1`?
**A.** Activity (Salmonella typhimurium [1]): Non-toxic; fold change (FC) (Salmonella typhimurium [2]): 26; Activity (Salmonella typhimurium [3]): Non-toxic; fold change (FC) (Salmonella typhimurium [4]): 10

**Q.** `Nc1ccc(-c2ccccc2)cc1Cl` was tested. Which Activity (Salmonella typhimurium [1]) did it give?
**A.** The Activity was “Non-toxic”.

**Q.** And the “fold change (FC)” value (Salmonella typhimurium [5])?
**A.** The value was 54.

**Q.** And the Activity (Salmonella typhimurium [3])?
**A.** The Activity was “Non-toxic”.

**Q.** What about the “fold change (FC)” value (Salmonella typhimurium [9]) of the same compound?
**A.** Its value is 37.

**Q.** `CS(=O)(=O)NCc1ccc(-c2ccc(N)cc2F)c(Cl)c1` was tested. Which Activity (Salmonella typhimurium [1]) did it give?
**A.** Its Activity is “Non-toxic”.

**Q.** What about the “fold change (FC)” value (Salmonella typhimurium [10]) of the same compound?
**A.** The value was 3.

**Q.** What about the Activity (Salmonella typhimurium [3]) of the same compound?
**A.** Its Activity is “Non-toxic”.

**Q.** And the Activity (Salmonella typhimurium [8])?
**A.** The Activity was “Non-toxic”.

**Q.** With `Nc1ccc(-c2ccccc2)c(Cl)c1` as the compound, how does the Activity (Salmonella typhimurium [1]) read?
**A.** Its Activity is “Non-toxic”.

**Q.** What about the Activity (Salmonella typhimurium [7]) of the same compound?
**A.** Its Activity is “Non-toxic”.

**Q.** What about the Activity (Salmonella typhimurium [3]) of the same compound?
**A.** Its Activity is “Non-toxic”.

**Q.** What about the Activity (Salmonella typhimurium [8]) of the same compound?
**A.** The Activity was “Non-toxic”.

**Q.** Which results are given for `Nc1ccc(-c2ccccc2Cl)cc1`?
**A.** Activity (Salmonella typhimurium [1]): Non-toxic; fold change (FC) (Salmonella typhimurium [2]): 11; Activity (Salmonella typhimurium [3]): Non-toxic; fold change (FC) (Salmonella typhimurium [4]): 5

**Q.** With `Nc1ccc(-c2ccccc2F)c(F)c1` as the compound, how does the Activity (Salmonella typhimurium [1]) read?
**A.** Its Activity is “Non-toxic”.

**Q.** What about the Activity (Salmonella typhimurium [7]) of the same compound?
**A.** Its Activity is “Non-toxic”.

**Q.** What about the Activity (Salmonella typhimurium [3]) of the same compound?
**A.** Its Activity is “Non-toxic”.

**Q.** And the Activity (Salmonella typhimurium [8])?
**A.** Its Activity is “Non-toxic”.

**Q.** For `Nc1ccc(-c2ccccc2Cl)c(F)c1`, which Activity (Salmonella typhimurium [1]) is on record?
**A.** Its Activity is “Non-toxic”.

**Q.** And the Activity (Salmonella typhimurium [7])?
**A.** The Activity was “Non-toxic”.

**Q.** And the Activity (Salmonella typhimurium [3])?
**A.** Its Activity is “Non-toxic”.

**Q.** And the Activity (Salmonella typhimurium [8])?
**A.** The Activity was “Non-toxic”.

**Q.** How did the Activity (Salmonella typhimurium [1]) turn out when `N#Cc1ccc(-c2ccc(N)cc2F)c(Cl)c1` was run?
**A.** Its Activity is “Non-toxic”.

**Q.** What about the Activity (Salmonella typhimurium [7]) of the same compound?
**A.** Its Activity is “Non-toxic”.

**Q.** And the Activity (Salmonella typhimurium [3])?
**A.** The Activity was “Non-toxic”.

**Q.** What about the Activity (Salmonella typhimurium [8]) of the same compound?
**A.** Its Activity is “Non-toxic”.

**Q.** `Nc1ccc(-c2ccc(Cl)cc2)cc1` was tested. Which Activity (Salmonella typhimurium [1]) did it give?
**A.** The Activity was “Non-toxic”.

**Q.** What about the “fold change (FC)” value (Salmonella typhimurium [2]) of the same compound?
**A.** Its value is 54.

**Q.** And the Activity (Salmonella typhimurium [3])?
**A.** The Activity was “Non-toxic”.

**Q.** What about the “fold change (FC)” value (Salmonella typhimurium [11]) of the same compound?
**A.** The value was 14.

**Q.** Which results are given for `Nc1ccc(-c2c(F)cccc2Cl)c(F)c1`?
**A.** Activity (Salmonella typhimurium [1]): Non-toxic; Activity (Salmonella typhimurium [7]): Non-toxic; Activity (Salmonella typhimurium [3]): Non-toxic; Activity (Salmonella typhimurium [8]): Non-toxic

**Q.** Which Activity (Salmonella typhimurium [1]) does the source give for `Nc1ccc(-c2c(F)cccc2F)c(F)c1` here?
**A.** Its Activity is “Non-toxic”.

**Q.** And the Activity (Salmonella typhimurium [7])?
**A.** The Activity was “Non-toxic”.

**Q.** And the Activity (Salmonella typhimurium [3])?
**A.** The Activity was “Non-toxic”.

**Q.** What about the Activity (Salmonella typhimurium [8]) of the same compound?
**A.** The Activity was “Non-toxic”.

**Q.** With `Nc1ccc(-c2cccc(F)c2)cc1` as the compound, how does the Activity (Salmonella typhimurium [1]) read?
**A.** Its Activity is “Non-toxic”.

**Q.** What about the “fold change (FC)” value (Salmonella typhimurium [2]) of the same compound?
**A.** The value was 38.

**Q.** What about the Activity (Salmonella typhimurium [3]) of the same compound?
**A.** Its Activity is “Non-toxic”.

**Q.** And the “fold change (FC)” value (Salmonella typhimurium [4])?
**A.** The value was 13.

**Q.** How did the Activity (Salmonella typhimurium [1]) turn out when `Nc1ccc(-c2c(F)cccc2F)cc1` was run?
**A.** Its Activity is “Non-toxic”.

**Q.** And the “fold change (FC)” value (Salmonella typhimurium [12])?
**A.** The value was 7.

**Q.** What about the Activity (Salmonella typhimurium [3]) of the same compound?
**A.** The Activity was “Non-toxic”.

**Q.** What about the “fold change (FC)” value (Salmonella typhimurium [4]) of the same compound?
**A.** Its value is 3.
